Tests used:
DNA topoisomerase II = DNA topoisomerase II (Homo sapiens, UniProt P11388+Q02880); assay: Inhibitory activity in a cell-free assay of DNA cleavage mediated by purified HeLa cell topoisomerase II.
P388 [1] = assay: In vitro cytotoxicity was determined by quantitating P388 murine leukemia cells on a coultier counter following a 48 hour exposure of cells to the test compound; assay type: functional, cell-based; details: Mus musculus, P388, 48 h
Mus musculus [2] = assay: In vivo antitumor activity was observed in mice at a dose of […] administered intravenously, subcutaneously; assay type: functional; details: route intravenous
Mus musculus [3] = assay: In vivo antitumor activity was observed in mice at a dose of 96 mg/kg administered intravenously; assay type: functional; details: route intravenous
P388 [4] = assay: In vitro cytotoxicity was determined by quantitating P388 murine leukemia cells on a Coulter Counter following a 48 hour exposure of cells to the test compound; assay type: functional, cell-based; details: Mus musculus, P388, 48 h
P388 [5] = assay: In vitro cytotoxicity was determined by quantitating P388 murine leukemia cells on a oultier counter following a 48 hour exposure of cells to the test compound; assay type: functional, cell-based; details: Mus musculus, P388, 48 h

Row | Compound | EC50 (DNA topoisomerase II) | further results
1 | CO/N=c1/ccn(C2CC2)c2c(F)c(-c3cc(C)nc(C)c3)c(F)cc12 | 2.6 µM | –
2 | Cc1cc(-c2c(F)cc3/c(=N\O)ccn(C4CC4)c3c2F)cc(C)n1 | 1.4 µM | –
3 | Cc1cc(-c2c(F)cc3/c(=N/NCCO)ccn(C4CC4)c3c2F)cc(C)n1 | 3.2 µM | –
4 | Cc1cc(-c2c(F)cc3/c(=N/c4ccc(N)cc4)ccn(C4CC4)c3c2F)cc(C)n1 | 7.6 µM | –
5 | Cc1cc(-c2c(F)cc3/c(=N/Nc4c5ccccc5nc5ccccc45)ccn(C4CC4)c3c2F)cc(C)n1 | 21 µM | –
6 | Cc1cc(-c2c(F)cc3c(=S)ccn(C4CC4)c3c2F)cc(C)n1 | 76 µM | –
7 | CCOC(=O)/C(C#N)=C1\C=CN(C2CC2)c2c1cc(F)c(-c1cc(C)nc(C)c1)c2F | 4.8 µM | –
8 | Cc1cc(-c2c(F)cc3/c(=N/CCN(C)C)ccn(C4CC4)c3c2F)cc(C)n1 | 14 µM | –
9 | Cc1cc(-c2c(F)cc3/c(=N/Nc4cnc5ccccc5c4)ccn(C4CC4)c3c2F)cc(C)n1 | 92 µM | –
10 | Cc1cc(-c2c(F)cc3/c(=N/c4ccccc4O)ccn(C4CC4)c3c2F)cc(C)n1 | 1.6 µM | –
11 | CC(=O)N/N=c1\ccn(C2CC2)c2c(F)c(-c3cc(C)nc(C)c3)c(F)cc12 | 20 µM | –
12 | Cc1cc(-c2c(F)cc3c(c2F)N(C2CC2)C=C/C3=C/C#N)cc(C)n1 | 4 µM | –
13 | Cc1cc(-c2c(F)cc3/c(=N/Nc4ccccn4)ccn(C4CC4)c3c2F)cc(C)n1 | 0.98 µM | IC50 (P388 [1]): 1 µM; T/C (Mus musculus [2]): 37%
14 | Cc1cc(-c2c(F)cc3/c(=N/C4CC4)ccn(C4CC4)c3c2F)cc(C)n1 | 2.4 µM | –
15 | Cc1cc(-c2c(F)cc3/c(=N/Sc4ccccn4)ccn(C4CC4)c3c2F)cc(C)n1 | 3.8 µM | –
16 | Cc1cc(-c2c(F)cc3c(=N)ccn(C4CC4)c3c2F)cc(C)n1 | 12 µM | –
17 | Cc1ccc(S(=O)(=O)/N=c2\ccn(C3CC3)c3c(F)c(-c4cc(C)nc(C)c4)c(F)cc23)cc1 | 45 µM | –
18 | Cc1cc(-c2c(F)cc3/c(=N/CCCN(C)C)ccn(C4CC4)c3c2F)cc(C)n1 | 5.5 µM | –
19 | Cc1cc(-c2c(F)cc3/c(=N/NC(N)=O)ccn(C4CC4)c3c2F)cc(C)n1 | 3.1 µM | –
20 | Cc1cc(-c2c(F)cc3/c(=N/N(C)C)ccn(C4CC4)c3c2F)cc(C)n1 | 2.3 µM | IC50 (P388 [1]): 0.27 µM
21 | Cc1cc(-c2c(F)cc3c4nn(-c5ccccc5)c(=O)c-4cn(C4CC4)c3c2F)cc(C)n1 | – | EC50 (DNA topoisomerase II; read-out: EC50): 2.7 µM
22 | Cc1cc(-c2c(F)cc3/c(=N/c4ccccn4)ccn(C4CC4)c3c2F)cc(C)n1 | 3.6 µM | –
23 | COc1cc([C@@H]2c3cc4c(cc3[C@@H](O[C@@H]3O[C@@H]5CO[C@@H](C)O[C@H]5[C@H](O)[C@H]3O)[C@H]3COC(=O)[C@H]23)OCO4)cc(OC)c1O [ETOPOSIDE] | – | T/C (Mus musculus [3]): 3%; IC50 (P388 [4]): 0.12 µM
24 | Cc1cc(-c2c(F)cc3/c(=N/Sc4ccc(Cl)cc4)ccn(C4CC4)c3c2F)cc(C)n1 | 9.4 µM | –
25 | Cc1cc(-c2c(F)cc3c(c2F)N(C2CC2)C=CC3=C(C#N)C#N)cc(C)n1 | 6.3 µM | –
26 | CN/N=c1\ccn(C2CC2)c2c(F)c(-c3cc(C)nc(C)c3)c(F)cc12 | 1.9 µM | –
27 | Cc1cc(-c2c(F)cc3/c(=N/N)ccn(C4CC4)c3c2F)cc(C)n1 | 1.7 µM | IC50 (P388 [5]): 3 µM
28 | Cc1cc(-c2c(F)cc3/c(=N/N4C(=O)c5ccccc5C4=O)ccn(C4CC4)c3c2F)cc(C)n1 | 16 µM | –
29 | Cc1cc(-c2c(F)cc3c(=O)ccn(C4CC4)c3c2F)cc(C)n1 | – | IC50 (P388 [1]): 9.7 µM

From ChEMBL document CHEMBL1128834, “Potent mammalian topoisomerase II inhibitors: 1-cyclopropyl-6,8-difluoro-1,4-dihydro-7-(2,6-dimethyl-4-pyridinyl)-4-substituted-quinolines” (Bioorg Med Chem Lett, 1995)
